Structures are written as SMILES.

This assay addresses T1, POLγA:A467T (Homo sapiens, UniProt P54098, A467T).
T1 sequence (P54098 1-1239 A467T): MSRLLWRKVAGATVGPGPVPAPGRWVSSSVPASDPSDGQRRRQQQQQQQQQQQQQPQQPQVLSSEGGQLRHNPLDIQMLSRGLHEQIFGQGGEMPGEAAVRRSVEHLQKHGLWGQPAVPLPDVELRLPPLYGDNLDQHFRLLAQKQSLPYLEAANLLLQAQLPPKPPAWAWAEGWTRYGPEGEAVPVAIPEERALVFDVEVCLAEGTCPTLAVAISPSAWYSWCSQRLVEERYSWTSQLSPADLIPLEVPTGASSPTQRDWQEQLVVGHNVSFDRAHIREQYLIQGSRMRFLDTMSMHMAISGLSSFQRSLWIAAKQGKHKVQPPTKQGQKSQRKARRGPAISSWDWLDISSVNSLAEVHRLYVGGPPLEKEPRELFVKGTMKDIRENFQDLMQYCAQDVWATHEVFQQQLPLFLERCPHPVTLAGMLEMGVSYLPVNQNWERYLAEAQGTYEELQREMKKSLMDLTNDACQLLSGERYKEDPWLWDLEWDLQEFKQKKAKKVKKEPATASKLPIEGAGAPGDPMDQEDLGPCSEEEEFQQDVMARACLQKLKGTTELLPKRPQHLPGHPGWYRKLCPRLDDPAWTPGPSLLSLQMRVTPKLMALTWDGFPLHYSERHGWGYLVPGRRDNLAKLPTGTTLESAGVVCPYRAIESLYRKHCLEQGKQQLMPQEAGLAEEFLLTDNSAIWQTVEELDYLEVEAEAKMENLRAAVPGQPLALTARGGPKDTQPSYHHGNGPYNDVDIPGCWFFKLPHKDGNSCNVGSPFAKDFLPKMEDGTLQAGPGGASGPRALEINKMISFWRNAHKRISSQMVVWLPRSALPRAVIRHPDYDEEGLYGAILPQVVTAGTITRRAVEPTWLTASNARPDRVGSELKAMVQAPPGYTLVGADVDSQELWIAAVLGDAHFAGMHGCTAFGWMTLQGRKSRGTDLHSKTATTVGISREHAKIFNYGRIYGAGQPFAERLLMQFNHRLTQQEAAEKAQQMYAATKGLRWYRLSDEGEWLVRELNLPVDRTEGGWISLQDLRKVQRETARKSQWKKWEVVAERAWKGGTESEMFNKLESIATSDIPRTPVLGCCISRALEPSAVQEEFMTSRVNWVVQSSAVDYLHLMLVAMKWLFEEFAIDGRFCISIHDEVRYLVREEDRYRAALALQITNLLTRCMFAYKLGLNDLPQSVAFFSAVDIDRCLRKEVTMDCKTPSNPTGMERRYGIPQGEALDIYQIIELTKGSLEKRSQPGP
T1 sequence (Q9UHN1 1-485 partner): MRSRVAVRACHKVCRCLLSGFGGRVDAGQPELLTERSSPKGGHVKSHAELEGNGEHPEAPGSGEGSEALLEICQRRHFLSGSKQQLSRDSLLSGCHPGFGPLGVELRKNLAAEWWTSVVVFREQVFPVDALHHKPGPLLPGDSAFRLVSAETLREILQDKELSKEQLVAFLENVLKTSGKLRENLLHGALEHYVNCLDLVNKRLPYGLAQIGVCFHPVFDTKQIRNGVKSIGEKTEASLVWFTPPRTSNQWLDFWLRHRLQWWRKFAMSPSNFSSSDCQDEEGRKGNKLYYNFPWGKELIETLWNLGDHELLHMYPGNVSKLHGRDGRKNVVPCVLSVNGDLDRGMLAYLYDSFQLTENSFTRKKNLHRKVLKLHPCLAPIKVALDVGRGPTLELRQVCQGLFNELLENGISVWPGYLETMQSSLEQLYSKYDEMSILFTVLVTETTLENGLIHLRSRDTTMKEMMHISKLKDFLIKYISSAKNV
As to the kind of experiment: DNA polymerization assay, POLγA:A467T mutant. It is filed as biochemical. The note with it: stimulation of polymerase activity, primed M13mp18 ssDNA, 37° C. 2 hours; read-out: A467T AC50.
As a reminder, the AC50 is the concentration at which the activity in the assay is half-maximal. Take `Cc1cc(S(=O)(=O)Nc2cccc(C(=O)N3CCC[C@H]3C(C)C)c2)c(C)cc1Cl` [Example 67, (S)-4-chloro-N-(3-(2-isopropylpyrrolidine-1-carbonyl)phenyl)-2,5-dimethylbenzenesulfonamide]: the AC50 is over 100 µM.
For `Cc1cc(S(=O)(=O)Nc2cccc(-c3cc[nH]n3)c2)c(C)cc1Cl` [Example 68, N-(3-(1H-pyrazol-3-yl)phenyl)-4-chloro-2,5-dimethylbenzenesulfonamide], the AC50 turned out to be 16 µM.
On to `Cc1cc(S(=O)(=O)Nc2ccc3ccn(C(C)C)c3c2)c(C)cc1Cl` [Example 69, 4-chloro-N-(1-isopropyl-1H-indol-6-yl)-2,5-dimethylbenzenesulfonamide], for which the AC50 was found to be 17 µM.
On to `Cc1nc2ccc(NS(=O)(=O)c3cc(C)c(Cl)cc3C)cc2o1` [Example 70, 4-chloro-2,5-dimethyl-N-(2-methylbenzo[d]oxazol-6-yl)benzenesulfonamide], for which the AC50 was 32 µM.
Take `Cc1nc2cc(NS(=O)(=O)c3cc(C)c(Cl)cc3C)ccc2s1` [Example 71, 4-chloro-2,5-dimethyl-N-(2-methylbenzo[d]thiazol-5-yl)benzenesulfonamide]: the AC50 was over 100 µM.
As for `Cc1c(Cl)cccc1S(=O)(=O)Nc1csc(-c2ccccc2)n1` [Example 154, 3-chloro-2-methyl-N-(2-phenylthiazol-4-yl)benzenesulfonamide], the AC50 was over 100 µM.
On to `COc1ccccc1-c1nc(NS(=O)(=O)c2cc(C)c(Cl)cc2C)cs1` [Example 155, 4-chloro-N-(2-(2-methoxyphenyl)thiazol-4-yl)-2,5-dimethylbenzenesulfonamide], for which the AC50 was over 100 µM.
Consider `Cc1cc(S(=O)(=O)Nc2nc(-c3ccccc3)co2)c(C)cc1Cl` [Example 157, 4-chloro-2,5-dimethyl-N-(4-phenyloxazol-2-yl)benzenesulfonamide], for which the AC50 is over 100 µM.
As for `Cc1cc(S(=O)(=O)N[C@H]2CCN(c3ccccc3)C2)c(C)cc1Cl` [Example 158, (S)-4-chloro-2,5-dimethyl-N-(1-phenylpyrrolidin-3-yl)benzenesulfonamide], the AC50 was over 100 µM.
On to `Cc1cc(S(=O)(=O)Nc2nc(-c3ccccc3)cn2C)c(C)cc1Cl` [Example 159, 4-chloro-2,5-dimethyl-N-(1-methyl-4-phenyl-1H-imidazol-2-yl)benzenesulfonamide], for which the AC50 was over 100 µM.
On to `Cc1cc(S(=O)(=O)Nc2cccc(C(=O)N3CCC(F)(F)C3)c2)c(C)cc1Cl` [Example 160, 4-chloro-N-(3-(3,3-difluoropyrrolidine-1-carbonyl)phenyl)-2,5-dimethylbenzenesulfonamide], for which the AC50 was over 100 µM.
Regarding `Cc1cc(S(=O)(=O)N[C@H]2CCCN(c3ccccc3)C2)c(C)cc1Cl` [Example 161, (S)-4-chloro-2,5-dimethyl-N-(1-phenylpiperidin-3-yl)benzenesulfonamide], the AC50 was over 100 µM.
Consider `Cc1cc(S(=O)(=O)Nc2cccc(C(=O)N3CCCC34CC4)c2)c(C)cc1Cl` [Example 162, N-(3-(4-azaspiro[2.4]heptane-4-carbonyl)phenyl)-4-chloro-2,5-dimethylbenzenesulfonamide], for which the AC50 turned out to be 91 µM.
For `CC(=O)N1CCC(c2nc(NS(=O)(=O)c3cc(C)c(Cl)cc3C)cs2)CC1` [Example 163, N-(2-(1-acetylpiperidin-4-yl)thiazol-4-yl)-4-chloro-2,5-dimethylbenzenesulfonamide], the half-maximal activity concentration (AC50) is over 100 µM.
With `COc1cccc(-c2nc(NS(=O)(=O)c3cc(C)c(Cl)cc3C)cs2)c1` [Example 165, 4-chloro-N-(2-(3-methoxyphenyl)thiazol-4-yl)-2,5-dimethylbenzenesulfonamide], the AC50 amounted to 1 µM.
With `Cc1cc(S(=O)(=O)Nc2csc(C(=O)N3CCCC3)n2)c(C)cc1Cl` [Example 166, 4-chloro-2,5-dimethyl-N-(2-(pyrrolidine-1-carbonyl)thiazol-4-yl)benzenesulfonamide], the AC50 came out at 2 µM.
For the molecule `Cc1cc(S(=O)(=O)Nc2csc(C3CCOCC3)n2)c(C)cc1Cl` [Example 167, 4-chloro-2,5-dimethyl-N-(2-(tetrahydro-2H-pyran-4-yl)thiazol-4-yl)benzenesulfonamide], the AC50 worked out at 8 µM.
Regarding `Cc1cc(S(=O)(=O)Nc2cn(Cc3ccccc3)cn2)c(C)cc1Cl` [Example 168, N-(1-benzyl-1H-imidazol-4-yl)-4-chloro-2,5-dimethylbenzenesulfonamide], the concentration at half-maximal activity (AC50) was over 100 µM.
Then `Cc1cc(S(=O)(=O)Nc2cn(-c3ccccc3)cn2)c(C)cc1Cl` [Example 169, 4-chloro-2,5-dimethyl-N-(1-phenyl-1H-imidazol-4-yl)benzenesulfonamide], with over 100 µM; and `Cc1cc(S(=O)(=O)Nc2cn(C)c(-c3ccccc3)n2)c(C)cc1Cl` [Example 170, 4-chloro-2,5-dimethyl-N-(1-methyl-2-phenyl-1H-imidazol-4-yl)benzenesulfonamide], with over 10 µM.
Take `Cc1cc(S(=O)(=O)Nc2cnn(-c3ccccc3)n2)c(C)cc1Cl` [Example 171, 4-chloro-2,5-dimethyl-N-(2-phenyl-2H-1,2,3-triazol-4-yl)benzenesulfonamide]: the concentration at half-maximal activity (AC50) was over 10 µM.
Then `Cc1cc(S(=O)(=O)Nc2csc(C(=O)N(C)CC(N)=O)n2)c(C)cc1Cl` [Example 172, N-(2-amino-2-oxoethyl)-4-((4-chloro-2,5-dimethylphenyl)sulfonamido)-N-methylthiazole-2-carboxamide], with over 10 µM.
With `Cc1cc(S(=O)(=O)Nc2csc(-c3ccccn3)n2)c(C)cc1Cl` [Example 173, 4-chloro-2,5-dimethyl-N-(2-(pyridin-2-yl)thiazol-4-yl)benzenesulfonamide], the AC50 came to 2 µM.
With `Cc1cc(S(=O)(=O)Nc2csc(C(=O)N3CCC[C@H]3C)n2)c(C)cc1Cl` [Example 174, (R)-4-chloro-2,5-dimethyl-N-(2-(2-methylpyrrolidine-1-carbonyl)thiazol-4-yl)benzenesulfonamide], the half-maximal activity concentration (AC50) came to 2 µM.
Take `Cc1cc(S(=O)(=O)Nc2csc(C(=O)N3CCC[C@@H]3C)n2)c(C)cc1Cl` [Example 175, (S)-4-chloro-2,5-dimethyl-N-(2-(2-methylpyrrolidine-1-carbonyl)thiazol-4-yl)benzenesulfonamide]: the AC50 worked out at 3 µM.
In the case of `Cc1cc(S(=O)(=O)Nc2csc(-c3ccncc3)n2)c(C)cc1Cl` [Example 176, 4-chloro-2,5-dimethyl-N-(2-(pyridin-4-yl)thiazol-4-yl)benzenesulfonamide] it was over 100 µM; in that of `Cc1cc(S(=O)(=O)Nc2csc(C(=O)N(CC(N)=O)C3CCCC3)n2)c(C)cc1Cl` [Example 177, N-(2-amino-2-oxoethyl)-4-((4-chloro-2,5-dimethylphenyl)sulfonamido)-N-cyclopentylthiazole-2-carboxamide], over 100 µM; in that of `Cc1cc(S(=O)(=O)Nc2csc(-n3cccn3)n2)c(C)cc1Cl` [Example 178, N-(2-(1H-pyrazol-1-yl)thiazol-4-yl)-4-chloro-2,5-dimethylbenzenesulfonamide], over 100 µM.
With `Cc1cc(S(=O)(=O)Nc2csc(C(=O)N(CC(N)=O)C3CCCCC3)n2)c(C)cc1Cl` [Example 179, N-(2-amino-2-oxoethyl)-4-((4-chloro-2,5-dimethylphenyl)sulfonamido)-N-cyclohexylthiazole-2-carboxamide], the AC50 is over 100 µM.

The record behind these values is patent publication US20260138961A1, “MODULATORS OF MITOCHONDRIAL DNA REPLICATION” (Pretzel Therapeutics, Inc., priority 2022, published 2026).
